Results published in the supplement of paper PMC10307832.

Tests used:
Experiment in all cases: relative viability (nuclei count vs DMSO), 5 days (fraction); higher = more cells survive
[1] = compound: CCN(CC)CCNC(=O)c1c(C)[nH]c(/C=C2\C(=O)Nc3ccc(F)cc32)c1C [Sunitinib] + C[C@]1(O)C[C@@H](c2nc(-c3ccc4ccc(-c5ccccc5)nc4c3)c3c(N)nccn32)C1 [Linsitinib] (partner 1 µM)
In short: (§1)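 Relative viability is defined as nuclei in treated wells over nuclei in vehicle wells. Duplicate plates were run and medians reported. Lung cancer cell lines in 1536-well plates were dosed by pin tool one day after seeding, with one drug or with a fixed anchor-drug dose plus five library-drug doses (not always all listed) in √10 steps, and nuclei were counted after 5 days.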

[2] = compound: CCN(CC)CCNC(=O)c1c(C)[nH]c(/C=C2\C(=O)Nc3ccc(F)cc32)c1C [Sunitinib] + O=C(CCCCCCC(=O)Nc1ccccc1)NO [Vorinostat] (partner 1 µM)
In short: as §1

[3] = compound: CCN(CC)CCNC(=O)c1c(C)[nH]c(/C=C2\C(=O)Nc3ccc(F)cc32)c1C [Sunitinib] + CC1(C)CCC(c2ccc(Cl)cc2)=C(CN2CCN(c3ccc(C(=O)NS(=O)(=O)c4ccc(N[C@H](CCN5CCOCC5)CSc5ccccc5)c(S(=O)(=O)C(F)(F)F)c4)cc3)CC2)C1 [Navitoclax] (partner 0.5 µM)
In short: as §1

[4] = compound: CCN(CC)CCNC(=O)c1c(C)[nH]c(/C=C2\C(=O)Nc3ccc(F)cc32)c1C [Sunitinib] + Nc1nc2[nH]cc(CCc3ccc(C(=O)N[C@@H](CCC(=O)O)C(=O)O)cc3)c2c(=O)[nH]1 [Pemetrexed] (partner 0.2 µM)
In short: as §1

| Cell Line | relative viability ([1]; first compound 0.06325 µM) | relative viability ([1]; first compound 0.2 µM) | relative viability ([1]; first compound 0.6325 µM) | relative viability ([1]; first compound 2 µM) | relative viability ([2]; first compound 0.02 µM) | relative viability ([2]; first compound 0.06325 µM) | relative viability ([2]; first compound 0.2 µM) | relative viability ([2]; first compound 0.6325 µM) | relative viability ([2]; first compound 2 µM) | relative viability ([3]; first compound 0.02 µM) | relative viability ([3]; first compound 0.06325 µM) | relative viability ([3]; first compound 0.2 µM) | relative viability ([3]; first compound 0.6325 µM) | relative viability ([3]; first compound 2 µM) | relative viability ([4]; first compound 0.02 µM) | relative viability ([4]; first compound 0.06325 µM) | relative viability ([4]; first compound 0.2 µM) | relative viability ([4]; first compound 0.6325 µM) | relative viability ([4]; first compound 2 µM) | relative viability ([1]; first compound 0.02 µM) |
| --- | --- | --- | --- | --- | --- | --- | --- | --- | --- | --- | --- | --- | --- | --- | --- | --- | --- | --- | --- | --- |
| PC-14 | 1.05 | 1.04 | 1.02 | 0.881 | 0.689 | 0.74 | 0.853 | 0.834 | 0.665 | 0.987 | 0.999 | 1.1 | 0.996 | 0.958 | 0.137 | 0.158 | 0.135 | 0.132 | 0.153 |  |
| RERF-LC-KJ | 0.869 | 0.968 | 1.07 | 0.855 | 0.701 | 0.733 | 0.674 | 0.66 | 0.707 | 0.844 | 0.899 | 1.13 | 0.876 | 0.977 | 0.472 | 0.483 | 0.485 | 0.418 | 0.49 | 0.868 |
| SK-LU-1 | 1.09 | 1.28 |  |  | 0.821 | 0.7 | 0.821 | 0.86 | 0.657 | 0.768 | 0.6 | 0.796 |  | 0.727 | 0.944 | 1 | 1.1 | 1.12 | 0.884 | 1.29 |
| SK-MES-1 | 1.1 | 1.12 | 1.08 | 1.03 | 1.07 | 1.09 | 1.24 | 1.29 | 1.08 | 1.18 | 1.34 | 1.43 | 1.3 | 1.3 | 0.851 | 0.946 | 1.09 | 1.13 | 0.903 | 0.982 |
| SW 1573 | 1 | 0.917 | 0.999 |  | 0.643 | 0.915 | 0.783 | 1.07 | 0.899 | 1.04 | 1.18 | 1.07 | 1.12 | 0.976 | 0.867 |  | 0.9 | 0.958 | 0.943 | 0.987 |
| UMC-11 | 0.958 | 1.08 | 1.01 | 0.914 | 0.329 | 0.373 | 0.401 | 0.349 | 0.388 | 0.302 | 0.307 | 0.367 | 0.281 | 0.272 | 0.669 | 0.838 | 0.843 | 0.885 | 0.772 | 0.958 |
